Experimental data reported in US11560372B2, “Heterocyclic compounds useful as modulators of acetylcholine receptors” (TAKEDA PHARMACEUTICAL COMPANY LIMITED, priority 2017, dated 2023).
pEC50: −log10 of the molar value.

Tests used:
[1] = target: T1, human M1 receptor (hCHRM1) (Homo sapiens, UniProt P11229); test: Measurement of M1 receptor positive allosteric modulator (M1PAM) activity, calcium fluorescence in CHO-K1 cells; assay type: cell-based; conditions: for activity (%) at 10 μM: 10 μM test compound, 100% = acetylcholine final concentration 1 μM, 0% = DMSO; for pEC50: inflection point of concentration-dependent curve, in the presence of acetylcholine at EC20 concentration (final 0.8-1.0 nM), read-out: IP value
T1 construct: expressed in transfected cells
T1 sequence (P11229 1-460): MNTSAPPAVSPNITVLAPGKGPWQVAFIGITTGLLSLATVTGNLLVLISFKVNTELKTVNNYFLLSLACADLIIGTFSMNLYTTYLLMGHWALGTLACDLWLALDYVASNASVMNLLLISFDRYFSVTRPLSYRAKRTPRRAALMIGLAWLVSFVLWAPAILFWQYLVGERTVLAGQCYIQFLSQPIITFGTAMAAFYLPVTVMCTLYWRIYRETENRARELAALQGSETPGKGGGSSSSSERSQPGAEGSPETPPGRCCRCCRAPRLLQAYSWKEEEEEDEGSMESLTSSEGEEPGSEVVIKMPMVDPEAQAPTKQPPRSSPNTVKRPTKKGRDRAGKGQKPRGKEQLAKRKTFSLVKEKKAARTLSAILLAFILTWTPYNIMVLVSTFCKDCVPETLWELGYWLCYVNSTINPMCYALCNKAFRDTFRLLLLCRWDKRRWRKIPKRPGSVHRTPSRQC
In short: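 CHO-K1 cells stably expressing human M1 loaded with Fluo-4 AM, then given compound plus acetylcholine at EC20 (final 0.8-1.0 nM). Calcium fluorescence read for 1 min; activity normalized to 1 μM acetylcholine (100%) and DMSO (0%), with IP taken as inflection point of concentration curve.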

MDR1 = target: T2, MDR1 (Homo sapiens, UniProt P08183); test: MDR1 membrane permeability test; assay type: in vitro ADME; conditions: pH 7.4, efflux ratio (ER), Papp B to A / A to B, human MDR1-expressing LLC-PK1 cells, read-out: MDR1 substrate screening 1 μM (MDRSUB1)/Ratio (NUMBER)
T2 construct: expressed in transfected cells
T2 sequence (P08183 whole entry): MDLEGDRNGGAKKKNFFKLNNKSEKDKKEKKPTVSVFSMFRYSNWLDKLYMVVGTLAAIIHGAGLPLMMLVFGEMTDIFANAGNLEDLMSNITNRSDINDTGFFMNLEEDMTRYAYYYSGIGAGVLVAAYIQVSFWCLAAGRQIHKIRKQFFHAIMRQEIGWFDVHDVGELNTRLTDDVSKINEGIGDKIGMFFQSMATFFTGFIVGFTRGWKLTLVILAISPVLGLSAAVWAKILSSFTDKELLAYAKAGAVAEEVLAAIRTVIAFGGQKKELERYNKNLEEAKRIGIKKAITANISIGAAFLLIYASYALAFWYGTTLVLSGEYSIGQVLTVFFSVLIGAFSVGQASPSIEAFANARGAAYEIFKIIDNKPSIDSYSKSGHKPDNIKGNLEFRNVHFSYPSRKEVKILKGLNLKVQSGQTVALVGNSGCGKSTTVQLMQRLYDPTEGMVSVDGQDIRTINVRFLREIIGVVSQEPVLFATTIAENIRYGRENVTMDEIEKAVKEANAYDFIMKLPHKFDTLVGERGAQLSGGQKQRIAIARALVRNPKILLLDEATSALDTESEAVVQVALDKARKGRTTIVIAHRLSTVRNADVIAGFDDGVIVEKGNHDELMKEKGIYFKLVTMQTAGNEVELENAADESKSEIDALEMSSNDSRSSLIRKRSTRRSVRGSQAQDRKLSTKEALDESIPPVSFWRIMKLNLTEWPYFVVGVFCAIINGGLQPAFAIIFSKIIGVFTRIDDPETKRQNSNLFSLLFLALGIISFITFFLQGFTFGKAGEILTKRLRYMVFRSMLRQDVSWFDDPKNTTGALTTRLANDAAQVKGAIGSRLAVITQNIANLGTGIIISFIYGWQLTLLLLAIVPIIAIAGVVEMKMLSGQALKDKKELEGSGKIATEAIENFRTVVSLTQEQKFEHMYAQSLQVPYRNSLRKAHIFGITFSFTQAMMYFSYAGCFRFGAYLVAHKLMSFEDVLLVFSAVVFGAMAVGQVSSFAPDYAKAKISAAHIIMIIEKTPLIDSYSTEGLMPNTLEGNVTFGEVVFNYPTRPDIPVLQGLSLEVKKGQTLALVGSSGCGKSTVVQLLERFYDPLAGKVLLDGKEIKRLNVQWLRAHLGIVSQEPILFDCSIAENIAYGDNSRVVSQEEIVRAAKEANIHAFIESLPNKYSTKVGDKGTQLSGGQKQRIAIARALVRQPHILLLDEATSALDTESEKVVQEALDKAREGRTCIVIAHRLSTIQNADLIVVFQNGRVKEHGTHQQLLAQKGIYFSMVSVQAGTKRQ
In short: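 Human MDR1-expressing LLC-PK1 cells were grown for 3 days on 96-well polyethylene terephthalate Transwell supports (0.4 μm pores, 0.143 cm^2) seeded at 3.45×10^4 cells/well. After a 30 min preincubation in M199 medium with 10 mmol/L HEPES and 1% BSA (pH 7.4), drug was added apically or basolaterally. After 1 hr at 37° C, the opposite side was sampled and analyzed by LC-MS/MS. Efflux ratio was calculated from Papp B to A versus A to B.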

Male ICR mice = test: Mouse defecation experiment; assay type: in vivo; conditions: mean±standard error
Method: Mouse Defecation Experiment
Male ICR mice (6-7 weeks old) were used after an acclimation period for about 1 week. A test drug (1 mg/kg or 3 mg/kg) was suspended in 0.5% methylcellulose solution and orally administered at a volume of 10 mL/kg, and the number of feces 2 hr later was counted. Only 0.5% methylcellulose was administered to a solvent administration group.

Row | Structure (SMILES) | activity (%) at 10 μM [1] | pEC50 [1] | efflux ratio at 1 hr, 1 μM (MDR1) | number of feces 2 hr later (Male ICR mice; 1 mg/kg orally) | number of feces 2 hr later (Male ICR mice; 3 mg/kg orally)
1 | Cc1c(Cc2ccc(-c3cn(C)nn3)nc2)cc2c(=O)n([C@H]3CCOC[C@@H]3O)cnc2c1C [Example 2, 1,5-anhydro-2,3-dideoxy-3-(7,8-dimethyl-6-((6-(1-methyl-1H-1,2,3-triazol-4-yl)pyridin-3-yl)methyl)-4-oxoquinazolin-3(4H)-yl)-L-threo-pentitol] | 104% | 8.82 | 18 | 5.0 ± 0.7 | 11.3 ± 0.6
2 | Cc1nn(C)cc1-c1ccc(Cc2cc3c(=O)n([C@H]4CCOC[C@@H]4O)cnc3c(C)c2C)cn1 [Example 5, 1,5-anhydro-2,3-dideoxy-3-(6-((6-(1,3-dimethyl-1H-pyrazol-4-yl)pyridin-3-yl)methyl)-7,8-dimethyl-4-oxoquinazolin-3(4H)-yl)-L-threo-pentitol] | 97% | 8.82 | 15 | 5.6 ± 1.0 | 8.4 ± 2.6
3 | Cc1c(Cc2ccc(-c3cnn(C)c3)nc2)cc2c(=O)n([C@H]3CCOC[C@@H]3O)cnc2c1C [Example 6, 1,5-anhydro-2,3-dideoxy-3-(7,8-dimethyl-6-((6-(1-methyl-1H-pyrazol-4-yl)pyridin-3-yl)methyl)-4-oxoquinazolin-3(4H)-yl)-L-threo-pentitol] | 99% | 9.02 | 11 | 7.2 ± 1.8 | 8.2 ± 1.0
4 | CNC(=O)c1ccc(Cc2cc3c(=O)n([C@H]4CCOC[C@@H]4O)nnc3c(Cl)c2C)cc1F [Example 19, 1,5-anhydro-3-(8-chloro-6-(3-fluoro-4-(methylcarbamoyl)benzyl)-7-methyl-4-oxo-1,2,3-benzotriazin-3(4H)-yl)-2,3-dideoxy-L-threo-pentitol] | 103% | 8.80 | 4.6 | 12.6 ± 1.2 | 

Second part, led by results:

Row | activity (%) at 10 μM [1] | pEC50 [1] | efflux ratio at 1 hr, 1 μM (MDR1) | Structure (SMILES) | number of feces 2 hr later (Male ICR mice; 1 mg/kg orally) | number of feces 2 hr later (Male ICR mice; 3 mg/kg orally)
5 | 103% | 9.00 | 6 | CNC(=O)c1ccc(Cc2cc3c(=O)n([C@H]4CCOC[C@@H]4O)cnc3c(C)c2C)cc1F [Example 3, 1,5-anhydro-2,3-dideoxy-3-(6-(3-fluoro-4-(methylcarbamoyl)benzyl)-7,8-dimethyl-4-oxoquinazolin-3(4H)-yl)-L-threo-pentitol] | 14.0 ± 1.0 | 
6 | 106% | 8.74 | 7 | COCCNC(=O)c1ccc(Cc2cc3c(=O)n([C@H]4CCOC[C@@H]4O)cnc3c(C)c2C)cc1F [Example 66, 1,5-anhydro-2,3-dideoxy-3-(6-(3-fluoro-4-((2-methoxyethyl)carbamoyl)benzyl)-7,8-dimethyl-4-oxoquinazolin-3(4H)-yl)-L-threo-pentitol] | 9.3 ± 1.2 | 
7 | 110% | 8.43 | 8.6 | Cc1c(Cc2ccc(C(=O)NC[C@H]3CCCO3)c(F)c2)cc2c(=O)n([C@H]3CCOC[C@@H]3O)cnc2c1C [Example 81, 1,5-anhydro-2,3-dideoxy-3-(6-(3-fluoro-4-(((2R)-tetrahydrofuran-2-ylmethyl)carbamoyl)benzyl)-7,8-dimethyl-4-oxoquinazolin-3(4H)-yl)-L-threo-pentitol] |  | 
